pIC50: −log10 of the molar value.
Assay: The assay uses purified baculovirus-expressed GST-VEGFR2 interacting with biotinylated peptide substrates. HTRF is based on the proximity of europium cryptate (donor fluorophore)-labeled antiphosphotyrosine and streptavidin labeled with APC (allophycocyanin), which have been brought together by a binding reaction.
Conditions: pH 7.5

pIC50 | SMILES
7.77 | Cc1nc2cc(N(C)c3ccnc(Nc4cccc(S(N)(=O)=O)c4)n3)ccc2n1C [3-({4-[(1,2-dimethyl-1H-1,3-benzodiazol-5-yl)(methyl)amino]pyrimidin-2-yl}amino)benzene-1-sulfonamide]
7.20 | Cc1nc2ccc(N(C)c3ccnc(Nc4cccc(S(N)(=O)=O)c4)n3)cc2n1C [3-({4-[(1,2-dimethyl-1H-1,3-benzodiazol-6-yl)(methyl)amino]pyrimidin-2-yl}amino)benzene-1-sulfonamide]
7.44 | Cc1nn(C)c2cc(N(C)c3ccnc(Nc4cccc(S(N)(=O)=O)c4)n3)ccc12 [3-({4-[(1,3-dimethyl-1H-indazol-6-yl)(methyl)amino]pyrimidin-2-yl}amino)benzene-1-sulfonamide]
8.25 | Cc1c2ccc(N(C)c3ccnc(Nc4cccc(S(N)(=O)=O)c4)n3)cc2nn1C [3-({4-[(2,3-dimethyl-2H-indazol-6-yl)(methyl)amino]pyrimidin-2-yl}amino)benzene-1-sulfonamide]
8.59 | Cc1c2ccc(N(C)c3ccnc(Nc4cccc(S(N)(=O)=O)c4)n3)cc2nn1Cc1ccccc1 [3-({4-[(2-benzyl-3-methyl-2H-indazol-6-yl)(methyl)amino]pyrimidin-2-yl}amino)benzene-1-sulfonamide]
8.12 | CN(c1ccc2cn(C)nc2c1)c1ccnc(Nc2cccc(S(N)(=O)=O)c2)n1 [3-({4-[methyl(2-methyl-2H-indazol-6-yl)amino]pyrimidin-2-yl}amino)benzene-1-sulfonamide]
9.22 | Cc1n[nH]c2cc(N(C)c3ccnc(Nc4cccc(S(N)(=O)=O)c4)n3)ccc12 [3-({4-[methyl(3-methyl-1H-indazol-6-yl)amino]pyrimidin-2-yl}amino)benzene-1-sulfonamide]

Reference: BindingDB's records for doi:10.1021/jm800566m (Gsk, 2008)
